In patent publication US10597388B2, “Pyridazinone herbicides” (FMC CORPORATION, priority 2014, dated 2020):

Experiments:
Assay in all cases: Test C greenhouse herbicide test, pre- and postemergence
Format in all cases: in vivo
[1] = test system: pigweed (Amaranthus retroflexus)
Description: (§1) Seeds of plant species selected from blackgrass (Alopecurus myosuroides), ryegrass, Italian (Italian ryegrass, Lolium multiflorum), wheat (winter wheat, Triticum aestivum), galium (catchweed bedstraw, Galium aparine), corn (Zea mays), large crabgrass, large (large crabgrass, Digitaria sanguinalis), foxtail, giant (giant foxtail, Setaria faberii), johnsongrass (Sorghum halepense), lambsquarters (Chenopodium album), morningglory (Ipomoea coccinea), nutsedge, yellow (yellow nutsedge, Cyperus esculentus), pigweed (Amaranthus retroflexus), ragweed (common ragweed, Ambrosia elatior), soybean (Glycine max), barnyardgrass (Echinochloa crus-galli), oilseed rape (Brassica napus), waterhemp (common waterhemp, Amaranthus rudis), and velvetleaf (Abutilon theophrasti) were planted into a blend of loam soil and sand and treated preemergence with test chemicals formulated in a non-phytotoxic solvent mixture which included a surfactant.
(§2) At the same time, plants selected from these crop and weed species and also chickweed (common chickweed, Stellaria media), kochia (Kochia scoparia), and oat, wild (wild oat, Avena fatua), were planted in pots containing Redi-Earth® planting medium (Scotts Company, 14111 Scottslawn Road, Marysville, Ohio 43041) comprising spaghnum peat moss, vermiculite, wetting agent and starter nutrients and treated with postemergence applications of test chemicals formulated in the same manner. Plants ranged in height from 2 to 18 cm (1- to 4-leaf stage) for postemergence treatments. Treated plants and controls were maintained in a greenhouse for 13 to 15 d, after which time all species were compared to controls and visually evaluated. Plant response ratings, summarized in Table C, are based on a scale of 0 to 100 where 0 is no effect and 100 is complete control. A dash (-) response means no test result.

[2] = test system: morningglory (Ipomoea coccinea)
Description: as §1, §2

[3] = test system: blackgrass (Alopecurus myosuroides)
Description: as §1, §2

[4] = test system: wheat (winter wheat, Triticum aestivum)
Description: as §1, §2

[5] = test system: johnsongrass (Sorghum halepense)
Description: as §1, §2

[6] = test system: waterhemp (common waterhemp, Amaranthus rudis)
Description: as §1, §2

[7] = test system: ragweed (common ragweed, Ambrosia elatior)
Description: as §1, §2

[8] = test system: barnyardgrass (Echinochloa crus-galli)
Description: as §1, §2

[9] = test system: foxtail, giant (giant foxtail, Setaria faberii)
Description: as §1, §2

[10] = test system: velvetleaf (Abutilon theophrasti)
Description: as §1, §2

soybean (Glycine max) = test system: soybean (Glycine max)
Description: as §1, §2

[11] = test system: nutsedge, yellow (yellow nutsedge, Cyperus esculentus)
Description: as §1, §2

corn (Zea mays) = test system: corn (Zea mays)
Description: as §1, §2

[12] = test system: ryegrass, Italian (Italian ryegrass, Lolium multiflorum)
Description: as §1, §2

[13] = test system: galium (catchweed bedstraw, Galium aparine)
Description: as §1, §2

[14] = test system: lambsquarters (Chenopodium album)
Description: as §1, §2

[15] = Postemergence, 31 g ai/ha, 0 to 100 scale (0 no effect, 100 complete control)
[16] = Postemergence, 125 g ai/ha, scale 0 to 100, 0 is no effect, 100 is complete control
[17] = Postemergence, 250 g ai/ha, scale 0 to 100, 0 no effect, 100 complete control, 13 to 15 d
[18] = postemergence, 62 g ai/ha, scale 0 to 100, 0 no effect, 100 complete control

Cc1cc(C)c2ccccc2c1-c1c(O)cnn(C)c1=O [Compound 51]
15: Plant response rating, Foxtail, Giant [9, 16]
30: Waterhemp plant response rating [6, 15]
70: Plant response rating, Pigweed [1, 16] | Plant response rating, Velvetleaf [10, 17] | Nutsedge, Yellow plant response rating [11, 18] | Plant response rating, Ryegrass, Italian [12, 17]
95: Plant response rating, Galium [13, 17]
50: Waterhemp plant response rating [6, 18] | Plant response rating, Velvetleaf [10, 16] | Ryegrass, Italian plant response rating [12, 18] | Lambsquarters plant response rating [14, 18]
25: Plant response rating, Ragweed [7, 17]
90: Plant response rating, Nutsedge, Yellow [11, 17] | Plant response rating, Galium [13, 16] | Galium plant response rating [13, 18]
55: Morningglory plant response rating [2, 18]
75: Plant response rating, Morningglory [2, 16] | Plant response rating, Morningglory [2, 17]
10: Plant response rating, Blackgrass [3, 17] | Ragweed plant response rating [7, 15] | Plant response rating, Barnyardgrass [8, 16]
20: Plant response rating, Barnyardgrass [8, 17] | Velvetleaf plant response rating [10, 18]
85: Plant response rating, Pigweed [1, 17] | Plant response rating, Nutsedge, Yellow [11, 16] | Galium plant response rating [13, 15]
0: Blackgrass plant response rating [3, 15] | Plant response rating, Blackgrass [3, 16] | Blackgrass plant response rating [3, 18] | Wheat plant response rating [4, 15] | Plant response rating, Wheat [4, 16] | Plant response rating, Wheat [4, 17] | Wheat plant response rating [4, 18] | Johnsongrass plant response rating [5, 15] | Plant response rating, Johnsongrass [5, 16] | Plant response rating, Johnsongrass [5, 17] | Johnsongrass plant response rating [5, 18] | Soybean plant response rating (soybean (Glycine max); [15]) | Plant response rating, Soybean (soybean (Glycine max); [16]) | Plant response rating, Soybean (soybean (Glycine max); [17]) | Soybean plant response rating (soybean (Glycine max); [18]) | Corn plant response rating (corn (Zea mays); [15]) | Plant response rating, Corn (corn (Zea mays); [16]) | Plant response rating, Corn (corn (Zea mays); [17]) | Corn plant response rating (corn (Zea mays); [18])
35: Plant response rating, Foxtail, Giant [9, 17] | Nutsedge, Yellow plant response rating [11, 15] | Ryegrass, Italian plant response rating [12, 15]
60: Pigweed plant response rating [1, 15] | Plant response rating, Ryegrass, Italian [12, 16]
5: Morningglory plant response rating [2, 15] | Plant response rating, Ragweed [7, 16] | Ragweed plant response rating [7, 18] | Barnyardgrass plant response rating [8, 15] | Barnyardgrass plant response rating [8, 18] | Foxtail, Giant plant response rating [9, 15] | Foxtail, Giant plant response rating [9, 18] | Velvetleaf plant response rating [10, 15] | Lambsquarters plant response rating [14, 15]
80: Plant response rating, Waterhemp [6, 16]
65: Pigweed plant response rating [1, 18] | Plant response rating, Lambsquarters [14, 16]

Cc1ccc(-c2c(O)c(Br)nn(C)c2=O)c2ccccc12 [Compound 52]
15: Plant response rating, Johnsongrass [5, 17]
65: Ragweed plant response rating [7, 18]
40: Ryegrass, Italian plant response rating [12, 18]
0: Blackgrass plant response rating [3, 15] | Wheat plant response rating [4, 15] | Plant response rating, Wheat [4, 16] | Plant response rating, Wheat [4, 17] | Wheat plant response rating [4, 18] | Foxtail, Giant plant response rating [9, 15] | Soybean plant response rating (soybean (Glycine max); [15]) | Plant response rating, Soybean (soybean (Glycine max); [16]) | Plant response rating, Soybean (soybean (Glycine max); [17]) | Soybean plant response rating (soybean (Glycine max); [18]) | Corn plant response rating (corn (Zea mays); [15]) | Plant response rating, Corn (corn (Zea mays); [16]) | Plant response rating, Corn (corn (Zea mays); [17]) | Corn plant response rating (corn (Zea mays); [18])
25: Velvetleaf plant response rating [10, 18]
80: Plant response rating, Ragweed [7, 16] | Nutsedge, Yellow plant response rating [11, 18]
100: Plant response rating, Morningglory [2, 16] | Plant response rating, Morningglory [2, 17] | Morningglory plant response rating [2, 18] | Plant response rating, Velvetleaf [10, 17] | Plant response rating, Galium [13, 16] | Plant response rating, Galium [13, 17] | Galium plant response rating [13, 18]
90: Plant response rating, Nutsedge, Yellow [11, 16] | Galium plant response rating [13, 15]
95: Plant response rating, Nutsedge, Yellow [11, 17]
55: Plant response rating, Pigweed [1, 17] | Plant response rating, Waterhemp [6, 17] | Ragweed plant response rating [7, 15] | Plant response rating, Velvetleaf [10, 16] | Lambsquarters plant response rating [14, 15]
30: Pigweed plant response rating [1, 15] | Plant response rating, Blackgrass [3, 16] | Plant response rating, Blackgrass [3, 17]
60: Nutsedge, Yellow plant response rating [11, 15] | Plant response rating, Ryegrass, Italian [12, 17] | Lambsquarters plant response rating [14, 18]
10: Plant response rating, Pigweed [1, 16] | Blackgrass plant response rating [3, 18] | Plant response rating, Johnsongrass [5, 16] | Johnsongrass plant response rating [5, 18] | Waterhemp plant response rating [6, 15] | Plant response rating, Waterhemp [6, 16] | Waterhemp plant response rating [6, 18] | Plant response rating, Barnyardgrass [8, 17] | Plant response rating, Foxtail, Giant [9, 16] | Ryegrass, Italian plant response rating [12, 15]
98: Morningglory plant response rating [2, 15] | Plant response rating, Ragweed [7, 17] | Plant response rating, Lambsquarters [14, 17]
45: Plant response rating, Ryegrass, Italian [12, 16]
75: Plant response rating, Lambsquarters [14, 16]
35: Plant response rating, Foxtail, Giant [9, 17]
5: Pigweed plant response rating [1, 18] | Johnsongrass plant response rating [5, 15] | Barnyardgrass plant response rating [8, 15] | Plant response rating, Barnyardgrass [8, 16] | Barnyardgrass plant response rating [8, 18] | Foxtail, Giant plant response rating [9, 18] | Velvetleaf plant response rating [10, 15]
